Experiment: Inhibition of first mitotic cell division in Asterina pectinifera fertilized eggs assessed as minimum effective concentration
Type: functional
Settings: Patiria pectinifera, Egg; read-out: MEC

SMILES | minimal effective concentration
C=CCc1cc(C)ccc1/C(C)=C\C(C)=C\CCC[C@H](O)CNC(C)=O | 2.5 µg/mL
C/C=C\c1cc(C)ccc1/C(C)=C\C(C)=C\CCC[C@H](O)CNC(C)=O | 2.5 µg/mL
